# From patent US10752616B2, “Bicycloheteroaryl-heteroaryl-benzoic acid compounds as retinoic acid receptor beta (RARβ) agonists” (King's College London, priority 2014, dated 2020)
# “Also recorded” adds a separate entry of the source.
# Columns and labels:
# RARβ [1] = target: T1, RARβ (Homo sapiens (Human), UniProt P10826); details: transactivation, relative to atRA = 1; cited from earlier work
# Target sequence in this assay (P10826 whole entry, species assumed): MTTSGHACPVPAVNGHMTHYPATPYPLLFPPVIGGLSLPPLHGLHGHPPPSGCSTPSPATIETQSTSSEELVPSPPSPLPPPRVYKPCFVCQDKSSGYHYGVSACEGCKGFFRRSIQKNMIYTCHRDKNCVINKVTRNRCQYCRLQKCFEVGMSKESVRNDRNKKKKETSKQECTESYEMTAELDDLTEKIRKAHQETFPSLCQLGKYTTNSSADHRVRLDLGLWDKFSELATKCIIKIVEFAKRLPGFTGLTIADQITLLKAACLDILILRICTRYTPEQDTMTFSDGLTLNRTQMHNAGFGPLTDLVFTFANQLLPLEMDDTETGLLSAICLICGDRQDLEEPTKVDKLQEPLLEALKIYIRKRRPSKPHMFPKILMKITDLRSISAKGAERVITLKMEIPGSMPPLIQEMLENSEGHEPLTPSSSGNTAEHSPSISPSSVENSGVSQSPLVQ
# RARγ [2] = target: T2, RARγ (Homo sapiens (Human), UniProt P13631); details: transactivation, relative to atRA = 1; cited from earlier work
# Target sequence in this assay (P13631 whole entry, species assumed): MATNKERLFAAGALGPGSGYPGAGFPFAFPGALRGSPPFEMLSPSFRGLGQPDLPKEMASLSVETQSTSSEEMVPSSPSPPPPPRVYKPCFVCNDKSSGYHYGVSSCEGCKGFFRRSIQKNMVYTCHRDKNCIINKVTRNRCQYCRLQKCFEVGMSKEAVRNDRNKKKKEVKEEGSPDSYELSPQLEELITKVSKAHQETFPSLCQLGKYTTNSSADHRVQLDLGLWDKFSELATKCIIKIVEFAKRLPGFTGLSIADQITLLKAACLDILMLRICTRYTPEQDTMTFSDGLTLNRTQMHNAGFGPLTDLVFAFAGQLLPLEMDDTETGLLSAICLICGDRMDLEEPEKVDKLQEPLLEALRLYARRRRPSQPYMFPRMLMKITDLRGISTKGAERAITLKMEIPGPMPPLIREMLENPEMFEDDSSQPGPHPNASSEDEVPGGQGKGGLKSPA
# RARγ [3] = target: T2, RARγ; assay: Subtype-specific transactivation from Yoshimura et al., 2000, RARγ; type: cell-based; details: ratio of relative EC30 (transactivation), Table 6
# Target sequence in this assay (P13631 whole entry, species assumed): as above
# RARα [4] = target: T3, RARα (Homo sapiens (Human), UniProt P10276); details: transactivation, relative to atRA = 1; cited from earlier work
# Target sequence in this assay (P10276 whole entry, species assumed): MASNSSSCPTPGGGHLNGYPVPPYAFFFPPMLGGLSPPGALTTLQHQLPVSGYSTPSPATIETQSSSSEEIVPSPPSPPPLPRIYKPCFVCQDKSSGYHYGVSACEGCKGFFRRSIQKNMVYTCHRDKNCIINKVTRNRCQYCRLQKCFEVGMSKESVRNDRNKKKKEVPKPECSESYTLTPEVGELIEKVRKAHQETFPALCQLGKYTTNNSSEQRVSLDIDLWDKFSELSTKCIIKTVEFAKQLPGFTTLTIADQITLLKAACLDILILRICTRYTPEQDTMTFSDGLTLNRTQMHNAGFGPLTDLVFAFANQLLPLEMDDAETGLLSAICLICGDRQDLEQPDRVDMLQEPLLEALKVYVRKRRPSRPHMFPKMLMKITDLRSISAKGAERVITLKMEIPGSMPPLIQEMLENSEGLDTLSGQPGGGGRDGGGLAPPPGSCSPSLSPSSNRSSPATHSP
# RARα [5] = target: T3, RARα; assay: Subtype-specific transactivation from Yoshimura et al., 2000, RARα; type: cell-based; details: ratio of relative EC30 (transactivation), Table 6
# Target sequence in this assay (P10276 whole entry, species assumed): as above
# RARα [6] = target: T3, RARα; assay: Binding affinity from Yoshimura et al., 2000, RARα; details: ratio of relative IC50 (binding), Table 5
# Target sequence in this assay (P10276 whole entry, species assumed): as above
# RARα [7] = target: T4, RARα (Mus musculus (Mouse), UniProt P11416); assay: Transactivation assay, mouse RARα; type: cell-based; details: Table 3
# T4 sequence (P11416 183-417): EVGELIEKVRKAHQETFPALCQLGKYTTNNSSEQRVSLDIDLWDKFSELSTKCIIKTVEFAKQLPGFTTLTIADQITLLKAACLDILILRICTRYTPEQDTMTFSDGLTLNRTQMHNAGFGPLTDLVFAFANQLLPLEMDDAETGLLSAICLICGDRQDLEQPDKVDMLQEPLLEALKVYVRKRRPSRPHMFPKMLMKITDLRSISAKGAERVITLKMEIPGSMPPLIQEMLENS
# Protocol: (§1) Transcriptional transactivation assays were performed with gal4 fusion receptor constructs, created using each of the RAR ligand binding domains of either mouse or human, co-transfected with the pFR-luc (Stratagene) reporter construct in COS-7 cells.
# (§2) Briefly, on day 1, 96 well plates were seeded with 8000 cells per well then left to recover overnight. On day 2, the cells were co-transfected with 100 ng of reporter plasmid and 10 ng of the appropriate receptor plasmid per well using lipofectamine (Invitrogen). On day 3, the lipofectamine containing media was replaced by a DMEM without phenol red, followed by the addition of test compound dissolved in 1 μL of DMSO to each well's 100 μL total volume. Finally, on day 4, the cells were lysed and their luciferase substrate was provided by the BrightGlo™ reagent (Promega), the plates were then read on the MicroBeta TriLux™ (Perkin Elmer).
# (§3) Data for test compounds are quoted as EC50 values. Where replicate data has been generated, the data are quoted as the mean EC50 from the separate experiments.
# [8] = tested on: rats with severed sensory roots; assay: Severed and re-implanted sensory roots (DRG, left forelimb) in rats; sticky tape tests; type: in vivo; details: rat, 1 mg/kg two days after lesion, then three times a week
# Protocol: In another example of nerve injury, the four sensory roots from each of four DRG at the level of the left forelimb were severed and re-implanted into the spinal cord.
# FIGS. 2A and 2B show two graphs of the time taken for rats to sense sticky tape (FIG. 2A) and to remove sticky tape (FIG. 2B) that is placed on its injured forepaw, as a function of the number of weeks after injury. Rats were treated with 1 mg/kg of the test compound or vehicle two days after lesion, and then three times a week for the period of the experiment. Error bars show SEM. ***P<0.001, students t test, n=3-4 rats for each treatment group. At weeks 3, 4, and 5, there was significant difference between the rats treated with RARβ agonist as compared to rats treated with other retinoid agonists and vehicle.
# RARβ [9] = target: T5, RARβ (Mus musculus (Mouse), UniProt P22605); assay: Transactivation assay, mouse RARβ; type: cell-based; details: Table 3, read-out: RARβ potency - EC50
# T5 sequence (P22605 210-444): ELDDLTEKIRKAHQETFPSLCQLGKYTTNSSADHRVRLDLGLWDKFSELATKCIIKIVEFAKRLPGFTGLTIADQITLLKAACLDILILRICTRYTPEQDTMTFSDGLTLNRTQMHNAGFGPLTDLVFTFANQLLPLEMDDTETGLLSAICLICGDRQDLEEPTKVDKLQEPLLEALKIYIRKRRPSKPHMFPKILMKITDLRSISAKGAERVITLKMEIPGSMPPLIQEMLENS
# Protocol: as §1, §2, §3
# RARα [10] = target: T4, RARα; assay: Transactivation assay for RARα (gal4-RAR fusion, pFR-luc reporter, COS-7 cells), Table 2; type: cell-based; details: for EC50: Table 2, COS-7 reporter, mean of three or more determinations, inactive = no agonist action at highest concentration tested; for RARα/RARβ ratio: fold-selectivity for RARβ over RARα, >1 = selective for RARβ
# Protocol: as §1, §2, §3
# (§4) EC50's values are reported as mean values of three or more determinations.
# RARγ [11] = target: T6, RARγ (Mus musculus (Mouse), UniProt P18911); assay: Transactivation assay for RARγ (gal4-RAR fusion, pFR-luc reporter, COS-7 cells), Table 2; type: cell-based; details: for EC50: Table 2, COS-7 reporter, mean of three or more determinations, inactive = no agonist action at highest concentration tested; for RARγ/RARβ ratio: fold-selectivity for RARβ over RARγ, >1 = selective for RARβ
# T6 sequence (P18911 185-419): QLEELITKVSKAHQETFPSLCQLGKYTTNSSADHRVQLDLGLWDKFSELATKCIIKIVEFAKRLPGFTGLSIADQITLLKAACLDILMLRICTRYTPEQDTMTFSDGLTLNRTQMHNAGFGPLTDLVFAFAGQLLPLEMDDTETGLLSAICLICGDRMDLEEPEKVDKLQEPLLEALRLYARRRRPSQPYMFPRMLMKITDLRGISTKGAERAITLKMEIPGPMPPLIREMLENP
# Protocol: as §1, §2, §3, §4
# RARα [12] = target: T3, RARα; assay: Transactivation assay, human RARα; type: cell-based; details: Table 3; Human
# Protocol: as §1, §2, §3
# Target sequence in this assay (P10276 183-417): as the sequence (P11416 183-417) above, with K165R counted along it
# RARγ [13] = target: T2, RARγ; assay: Transactivation assay, human RARγ; type: cell-based; details: Table 3; Human
# Protocol: as §1, §2, §3
# Target sequence in this assay (P13631 185-419): as the sequence (P18911 185-419) above
# RARβ [14] = target: T5, RARβ; assay: Transactivation assay for RARβ (gal4-RAR fusion, pFR-luc reporter, COS-7 cells), Table 2; type: cell-based; details: COS-7 reporter, mean of three or more determinations, species not stated (method: mouse or human)
# Protocol: as §1, §2, §3, §4
# RARγ [15] = target: T6, RARγ; assay: Transactivation assay, mouse RARγ; type: cell-based; details: Table 3
# Protocol: as §1, §2, §3
# RARβ [16] = target: T1, RARβ; assay: Transactivation assay, human RARβ; type: cell-based; details: Table 3; Human; read-out: RARβ potency - EC50
# Protocol: as §1, §2, §3
# Target sequence in this assay (P10826 183-417): as the sequence (P22605 210-444) above
# cerebellar neurons = assay: Neurite outgrowth assay, cerebellar neurons in the presence of myelin/MAG; type: cell-based, rat; details: cerebellar neurons, in the presence of MAG/myelin, with CD2019
# Protocol: Cerebellar neurons isolated from post-natal day 3 rat pups were cultured over monolayers of parental 3T3 cells in control media, or media supplemented with a recombinant MAG-Fc chimera (R&D Systems) used at a final concentration of 20 μg/mL MAG-Fc. The monolayers were established for 24 hours prior to addition of the neurons and the co-cultures were maintained for approximately 21 hours. Following careful fixation with 4% paraformaldehyde, the neurons were immuno-stained with a GAP-43 antibody (from Graham Wilkin, Imperial College), dilution of 1:500, and the mean length of the longest neurite per cell was measured for approximately 120-150 neurons as previously described (see, e.g., Williams et al., 2005). DRG and cortical explants were obtained from adult rats, they were cultured in cellogen as previously described (see, e.g., Corcoran and Maden, 1999). Three explants per treatment were used. Neurite outgrowth was assessed 3 days later by immunohistochemistry with NF200 (Sigma, dilution of 1:200). The average lengths of the neurites were measured using image pro plus software. Media consisted of DMEM-F12 (Invitrogen) containing N2 (Invitrogen) supplemented with glucose (33 mM) and glutamine (2 mM).
RARγ/RARβ ratio (RARγ [3]),RARα/RARβ ratio (RARα [5]),EC50 (RARα [10]),EC50 (RARγ [11]),EC50 (RARβ [14]),Compound,RARβ relative EC30 (RARβ [1]),RARγ relative EC30 (RARγ [2]),RARα relative EC30 (RARα [4]),further results
7.45,0.006,–,–,–,O=C(O)c1ccc(-c2ccc(-c3cc4c(Cl)ccc(Cl)c4o3)[nH]2)cc1 [1c],110 ± 30,820 ± 290,0.70 ± 0.15,RARα/RARβ ratio (RARα [6]): 0.0022
–,–,26 nM,11 nM,1.94 nM,"Cc1ccc(C)c2oc(-c3nc(-c4ccc(C(=O)O)cc4)no3)cc12 [BHBA-001, 4-(5-(4,7-Dimethylbenzofuran-2-yl)-1,2,4-oxadiazol-3-yl)benzoic acid]",–,–,–,Selectivity over RARα (RARα [7]): 14-fold; Behavioural tests after 5 weeks (severed sensory roots) [8]: performed as well as non-lesioned animals; EC50 (RARβ [9]): 1.94 nM; Selectivity over RARα (RARα [12]): 23-fold; Selectivity over RARγ (RARγ [13]): 5-fold; Selectivity over RARγ (RARγ [15]): 6-fold; EC50 (RARβ [16]): 2.05 nM
–,–,136 nM,29 nM,11.4 nM,"Cc1ccc(C)c2oc(-c3nc(-c4ccc(C(=O)O)cc4Cl)no3)cc12 [BHBA-002, 3-Chloro-4-(5-(4,7-dimethylbenzofuran-2-yl)-1,2,4-oxadiazol-3-yl)benzoic acid]",–,–,–,Selectivity over RARα (RARα [7]): 12-fold; EC50 (RARβ [9]): 11.5 nM; RARα/RARβ ratio (RARα [10]): 12; RARγ/RARβ ratio (RARγ [11]): 2.5; Selectivity over RARα (RARα [12]): 12-fold; Selectivity over RARγ (RARγ [13]): 2-fold; Selectivity over RARγ (RARγ [15]): 3-fold; EC50 (RARβ [16]): 21.4 nM
–,–,–,–,–,O=c1cc(N2CCOCC2)oc2c(-c3ccccc3)cccc12 [LY295002],–,–,–,Effect on RARβ agonist (CD2019) mediated neurite outgrowth (cerebellar neurons): neurite outgrowth was severely impeded
–,–,–,–,–,CCCCCCOC(=O)[C@]1(O)C[C@@H]2O[C@@]1(C)n1c3ccccc3c3c4c(c5c6ccccc6n2c5c31)C(=O)NC4 [KT5720],–,–,–,Effect on RARβ agonist (CD2019) mediated neurite outgrowth (cerebellar neurons): little or no effect; also recorded: does not affect
12.9,0.034,–,–,–,O=C(O)c1ccc(-c2ccc(-c3cc4c(C(F)(F)F)ccc(F)c4o3)[nH]2)cc1 [1f],8.5 ± 0.4,110 ± 20,0.29 ± 0.04,RARα/RARβ ratio (RARα [6]): 0.0038
8.33,0.0038,–,–,–,O=C(O)c1ccc(-c2ccc(-c3cc4c(F)ccc(F)c4o3)[nH]2)cc1 [1e],210 ± 40,1750 ± 750,0.80 ± 0.17,–
–,–,150 nM,22 nM,8.1 nM,"Cc1cc(-c2nc(-c3cc4c(C)ccc(C)c4o3)no2)ccc1C(=O)O [BHBA-032, 4-(3-(4,7-Dimethylbenzofuran-2-yl)-1,2,4-oxadiazol-5-yl)-2-methylbenzoic acid]",–,–,–,RARα/RARβ ratio (RARα [10]): 18.5; RARγ/RARβ ratio (RARγ [11]): 2.7
6.46,0.010,–,–,–,Cc1ccc(C)c2sc(-c3ccc(-c4ccc(C(=O)O)cc4)[nH]3)cc12 [1j],130 ± 60,840 ± 360,1.3 ± 0.6,–
–,–,56 nM,18 nM,7.4 nM,"Cc1ccc(Cl)c2oc(-c3nc(-c4ccc(C(=O)O)cc4Cl)no3)cc12 [BHBA-017, 3-Chloro-4-(5-(7-chloro-4-methylbenzofuran-2-yl)-1,2,4-oxadiazol-3-yl)benzoic acid]",–,–,–,RARα/RARβ ratio (RARα [10]): 8; RARγ/RARβ ratio (RARγ [11]): 2.4

Compound,RARγ/RARβ ratio (RARγ [3]),RARα/RARβ ratio (RARα [5]),EC50 (RARα [10]),EC50 (RARγ [11]),EC50 (RARβ [14]),RARβ relative EC30 (RARβ [1]),RARγ relative EC30 (RARγ [2]),RARα relative EC30 (RARα [4]),further results
Cc1ccc(C)c2oc(-c3ccc(-c4ccc(C(=O)O)cc4)[nH]3)cc12 [1b],9.60,0.148,–,–,–,25 ± 12,240 ± 30,0.37 ± 0.02,RARα/RARβ ratio (RARα [6]): 0.0029
